Read-outs that look alike come from different tables or passages of the source.
System: NMDA receptor
Assay: Whole-cell voltage-clamp recording of NMDA-induced currents in cultured hippocampal neurons
Assay type: cell-based, rats
Conditions: for IC50: estimated from relative inhibition at 100 µM steroid with the logistic equation, apparent Hill coefficient 1.2, 100 µM NMDA; for mean inhibitory effect on NMDA-induced currents: 100 µM steroid, responses elicited by 100 µM NMDA
[1] = relative degree of inhibition by 100 µM steroid of current responses induced by fast application of 100 µM NMDA, cultured hippocampal neurons, holding potential -60 mV
[2] = cultured hippocampal neurons, holding potential -60 mV

Compound	IC50 (cultured hippocampal neurons)	Inhibition (X) [1]	Inhibition (X)	mean inhibitory effect on NMDA-induced currents [2]	mean inhibitory effect on NMDA-induced currents (cultured hippocampal neurons, holding potential -60 mV, listed as 5β-pregnenolone sulfate)
CC(=O)O[C@@H]1C[C@H]2C[C@H](OC(=O)CCC(=O)O)CC[C@]2(C)[C@H]2CC[C@]3(C)[C@@H](C(C)=O)CC[C@H]3[C@H]12 [Example 3, 20-Oxo-5α-pregnane-3α,7α-diyl 3-Hemisuccinate 7-Acetate]	384 µM	17.4	–	–	–
20-Oxo-5β-pregnane-3α,7α-diyl 3-Sulfate 7-Nicotinate Pyridinium Salt [Example 19]	116 µM	46.9	–	–	–
20-Oxo-5α-pregnane-3α,7α-diyl 3-Sulfate 7-Nicotinate Pyridinium Salt [Example 10]	154 µM	37.8	–	–	–
20-Oxo-5α-pregnane-3α,7α-diyl 3-Sulfate 7-Acetate Pyridinium Salt [Example 4]	167 µM	–	35.2	–	–
CC(=O)O[C@@H]1C[C@H]2C[C@H](OS(=O)(=O)[O-])CC[C@]2(C)[C@H]2CC[C@]3(C)[C@@H](C(C)=O)CC[C@H]3[C@H]12.[Na+] [Example 5, 20-Oxo-5α-pregnan-3α,7α-diyl 3-Sulfate 7-Acetate Sodium Salt]	–	–	–	17%	–
20-Oxo-5β-pregnan-3α,7α-diyl 3-Sulfate 7-Acetate Pyridinium Salt [Example 13]	186 µM	34.1	–	–	–
CC(=O)O[C@@H]1C[C@@H]2C[C@H](OC(=O)CCC(=O)O)CC[C@]2(C)[C@H]2CC[C@]3(C)[C@@H](C(C)=O)CC[C@H]3[C@H]12 [Example 12, 20-Oxo-5β-pregnane-3α,7α-diyl 3-Hemisuccinate 7-Acetate]	300 µM	21.4	–	–	–
pregnanolone sulfate [reference compound]	–	–	–	71.3 ± 5.0%	71%

— EP2313424B1, “ANIONIC PREGNANE COMPOUNDS, METHOD FOR THEIR PRODUCING AND USE OF THEM” (Ústav organické chemie a biochemie Akademie ved Ceské …, priority 2008, dated 2010)
